Laboratory results: patent publication US20260000676A1, “CHROMAN DERIVATIVES AS ESTROGEN RECEPTOR DEGRADERS” (THE REGENTS OF THE UNIVERSITY OF MICHIGAN, priority 2022, published 2026)
Where a name gives a salt, the structure may show the parent alone.

Legend:
ER [1] = target: T1, ER (Homo sapiens (Human), UniProt P03372); test: In-cell western (ICW) ER degradation assay in T47D cells; type: cell-based; details: 16 hrs; for DC50: ER degradation; for Dmax / T47D Dmax %: maximal ER degradation
ER [2] = target: T1, ER; test: In-cell western (ICW) ER degradation assay in MCF-7 cells; type: cell-based; details: MCF7, 16 hrs; for DC50: ER degradation; for Dmax: MCF7, maximal ER degradation; for MCF7 Dmax %: maximal ER degradation
CRBN/DDB1 = CRBN/DDB1 (Homo sapiens (Human), UniProt Q96SW2); test: HTRF binding assay to CRBN/DDB1; details: read-out: CRBN HTRF IC50
Experimental: The binding potency was determined using HTRF assay technology (Perkin Elmer). Compounds were serially diluted in DMSO and 0.2 μL volume was transferred to white 384-well plate.

T1 sequence (P03372 whole entry): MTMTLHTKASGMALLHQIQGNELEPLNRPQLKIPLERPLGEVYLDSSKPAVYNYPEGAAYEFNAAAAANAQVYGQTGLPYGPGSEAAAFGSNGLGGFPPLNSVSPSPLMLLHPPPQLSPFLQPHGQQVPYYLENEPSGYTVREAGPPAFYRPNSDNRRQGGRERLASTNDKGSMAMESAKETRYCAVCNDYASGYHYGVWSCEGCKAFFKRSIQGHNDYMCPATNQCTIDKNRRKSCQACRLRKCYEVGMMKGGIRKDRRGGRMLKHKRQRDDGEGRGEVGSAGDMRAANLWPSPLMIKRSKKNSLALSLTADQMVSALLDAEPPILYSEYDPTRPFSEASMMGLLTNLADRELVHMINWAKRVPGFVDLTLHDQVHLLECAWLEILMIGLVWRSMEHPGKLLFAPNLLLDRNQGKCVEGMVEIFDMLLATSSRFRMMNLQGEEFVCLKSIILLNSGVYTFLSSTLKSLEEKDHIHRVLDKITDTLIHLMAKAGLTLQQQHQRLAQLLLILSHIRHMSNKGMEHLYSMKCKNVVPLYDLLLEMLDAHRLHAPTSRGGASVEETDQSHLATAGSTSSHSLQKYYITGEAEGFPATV
Chain of CRBN/DDB1 (Q96SW2 whole entry): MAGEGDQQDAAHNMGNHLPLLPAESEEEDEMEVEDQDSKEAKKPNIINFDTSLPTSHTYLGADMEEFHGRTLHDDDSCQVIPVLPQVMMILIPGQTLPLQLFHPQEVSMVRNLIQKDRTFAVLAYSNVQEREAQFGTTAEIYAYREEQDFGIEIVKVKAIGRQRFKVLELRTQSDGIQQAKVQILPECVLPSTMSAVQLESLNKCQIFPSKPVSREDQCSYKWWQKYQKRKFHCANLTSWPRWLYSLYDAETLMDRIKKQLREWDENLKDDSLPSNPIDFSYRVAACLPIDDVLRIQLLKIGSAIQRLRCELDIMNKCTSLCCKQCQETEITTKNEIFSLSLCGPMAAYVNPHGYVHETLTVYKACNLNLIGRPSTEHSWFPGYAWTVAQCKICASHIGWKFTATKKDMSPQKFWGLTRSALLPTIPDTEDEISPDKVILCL
Chain of CRBN/DDB1 (Q16531 whole entry partner): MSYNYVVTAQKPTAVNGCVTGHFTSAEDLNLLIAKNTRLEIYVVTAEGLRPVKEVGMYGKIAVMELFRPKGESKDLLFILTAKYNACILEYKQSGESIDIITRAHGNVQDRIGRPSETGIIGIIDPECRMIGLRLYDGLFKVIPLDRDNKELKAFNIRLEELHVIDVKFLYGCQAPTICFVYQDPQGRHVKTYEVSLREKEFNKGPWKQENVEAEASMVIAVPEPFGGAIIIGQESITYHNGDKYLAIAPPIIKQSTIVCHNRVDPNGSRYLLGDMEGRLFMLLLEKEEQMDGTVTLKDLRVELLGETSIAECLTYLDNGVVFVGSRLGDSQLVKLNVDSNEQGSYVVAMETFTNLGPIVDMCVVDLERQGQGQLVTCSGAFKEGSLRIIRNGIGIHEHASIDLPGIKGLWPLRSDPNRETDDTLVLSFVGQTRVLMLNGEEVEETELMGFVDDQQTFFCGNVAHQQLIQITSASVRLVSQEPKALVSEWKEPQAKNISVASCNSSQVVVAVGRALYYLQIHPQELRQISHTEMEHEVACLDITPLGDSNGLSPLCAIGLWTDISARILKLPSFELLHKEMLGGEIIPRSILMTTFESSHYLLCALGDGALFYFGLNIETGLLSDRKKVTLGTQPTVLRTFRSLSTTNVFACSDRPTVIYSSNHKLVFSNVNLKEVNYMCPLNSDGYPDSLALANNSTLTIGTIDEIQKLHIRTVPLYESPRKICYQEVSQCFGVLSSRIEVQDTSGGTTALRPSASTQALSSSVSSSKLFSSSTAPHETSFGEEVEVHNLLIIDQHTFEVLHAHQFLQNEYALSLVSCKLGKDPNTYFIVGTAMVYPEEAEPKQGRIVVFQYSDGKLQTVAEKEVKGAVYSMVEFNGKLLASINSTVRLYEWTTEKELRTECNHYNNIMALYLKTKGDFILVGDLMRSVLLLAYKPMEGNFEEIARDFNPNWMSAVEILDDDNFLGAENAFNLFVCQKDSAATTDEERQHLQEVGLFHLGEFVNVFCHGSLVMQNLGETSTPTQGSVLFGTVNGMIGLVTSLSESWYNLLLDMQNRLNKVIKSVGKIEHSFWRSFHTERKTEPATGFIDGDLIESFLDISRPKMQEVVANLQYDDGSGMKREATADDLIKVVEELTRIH

Molecule `O=C1CC[C@@H](N2Cc3cc4c(cc3C2=O)OC[C@H]2CN(C[C@@H]3COC5(CCN(c6ccc([C@H]7c8ccc(O)cc8OC[C@H]7c7ccccc7)cc6F)CC5)C3)CCN42)C(=O)N1` [Compound A160, (R)-3-((R)-3-(((R)-8-(2-fluoro-4-((3R,4S)-7-hydroxy-3-phenylchroman-4-yl)phenyl)-1-oxa-8-azaspiro[4.5]decan-3-yl)methyl)-8-oxo-1,2,3,4,4a,5,8,10-octahydro-9H-pyrazino[1′,2′:4,5][1,4]oxazino[2,3-f]isoindol-9-yl)piperidine-2,6-dione] has a DC50 (ER [1]) of 0.001 to 0.01 µM, a Dmax (ER [1]) of 25 to 50% and a DC50 (ER [2]) of 0.001 to 0.01 µM. The Dmax (ER [2]) was < 25% and the IC50 (CRBN/DDB1) was 0.5 to 5 µM.
In the case of `O=C1CC[C@@H](N2Cc3c(ccc4c3OC[C@@H]3CN(CC5COC6(CCN(c7ccc([C@@H]8c9ccc(O)cc9OC[C@@H]8c8ccccc8)cc7F)CC6)C5)CCN43)C2=O)C(=O)N1` (single isomer, unassigned) [Compound A158], the DC50 (ER [1]) is reported as < 0.001 µM, the DC50 (ER [2]) is reported as < 0.001 µM and the IC50 (CRBN/DDB1) is reported as < 0.05 µM.
With `O=C1CC[C@@H](N2Cc3cc4c(cc3C2=O)OC[C@@H]2CN(C[C@H]3COC5(CCN(c6ccc([C@H]7c8ccc(O)cc8OC[C@H]7c7ccccc7)cc6)CC5)C3)CCN42)C(=O)N1` [Compound A152, (R)-3-((S)-3-(((S)-8-(4-((3R,4S)-7-hydroxy-3-phenylchroman-4-yl)phenyl)-1-oxa-8-azaspiro[4.5]decan-3-yl)methyl)-8-oxo-1,2,3,4,4a,5,8,10-octahydro-9H-pyrazino[1′,2′:4,5][1,4]oxazino[2,3-f]isoindol-9-yl)piperidine-2,6-dione] the DC50 (ER [1]) was 0.001 to 0.01 µM, the “T47D Dmax %” value (ER [1]) was “B (“B”: >50% and <75%)” and the DC50 (ER [2]) was 0.01 to 0.1 µM. For the same molecule, the “MCF7 Dmax %” value (ER [2]) was “B (“B”: >50% and <75%)” and the IC50 (CRBN/DDB1) was 0.05 to 0.5 µM.
For `O=C1CCC(N2C(=O)c3cc4c(cc3C2=O)CN(C(=O)C2CCN(C3CCN(c5ccc([C@@H]6c7ccc(O)cc7OC[C@@H]6c6ccccc6)cc5)CC3)CC2)C4)C(=O)N1` (single isomer, unassigned) [Compound A79], the DC50 (ER [1]) was < 0.001 µM, the Dmax (ER [1]) was ≥ 75% and the DC50 (ER [2]) was < 0.001 µM. The Dmax (ER [2]) was ≥ 75% and the IC50 (CRBN/DDB1) was 0.5 to 5 µM.
For `O=C1CCC(NC(=O)c2ccc(N3CCN(CC4CCN(c5ccc([C@H]6c7ccc(O)cc7OC[C@H]6c6ccccc6)cc5F)CC4)CC3)cn2)C(=O)N1` (single isomer, unassigned) [Compound A100], the DC50 (ER [1]) was 0.001 to 0.01 µM, the Dmax (ER [1]) was 50 to 75% and the DC50 (ER [2]) was 0.001 to 0.01 µM. The Dmax (ER [2]) was 50 to 75% and the IC50 (CRBN/DDB1) was > 5 µM.
`O=C1CCC(N2Cc3c(ccc4c3OC[C@H]3CN(CC5CCN(c6ccc([C@@H]7c8ccc(O)cc8OC[C@@H]7c7ccccc7)cn6)CC5)CCN43)C2=O)C(=O)N1` (single isomer, unassigned) [Compound A69] showed a DC50 (ER [1]) of 0.001 to 0.01 µM, a Dmax (ER [1]) of 25 to 50% and a DC50 (ER [2]) of 0.001 to 0.01 µM. For the same molecule, the Dmax (ER [2]) was < 25% and the IC50 (CRBN/DDB1) was 0.05 to 0.5 µM.
With `COc1nc(C(=O)NC2CCC(=O)NC2=O)ccc1N1CCN(CC2CCC3(CC2)CN(c2ccc([C@@H]4c5ccc(O)cc5OC[C@@H]4c4ccccc4)cc2)C3)CC1` (single isomer, unassigned) [Compound A108] the DC50 (ER [1]) was < 0.001 µM, the Dmax (ER [1]) was ≥ 75% and the Dmax (ER [1]; given as number) was 76.3%. It also gave a DC50 (ER [2]) of 0.001 to 0.01 µM, a Dmax (ER [2]) of 50 to 75% and an IC50 (CRBN/DDB1) of 0.5 to 5 µM.
`O=C1CCC(N2Cc3cc4c(cc3C2=O)OC[C@@H]2CN(CC3CCN(c5ccc([C@@H]6c7ccc(O)cc7OC[C@@H]6c6ccccc6)cn5)CC3)CCN42)C(=O)N1` (single isomer, unassigned) [Compound A70] was tested, and the DC50 (ER [1]) was 0.001 to 0.01 µM, the DC50 (ER [2]) was > 0.1 µM and the IC50 (CRBN/DDB1) was 0.05 to 0.5 µM.
With `O=C1CC[C@@H](Nc2ccc(C3CCN(C[C@H]4COC5(CCN(c6ccc([C@H]7c8ccc(O)cc8OC[C@H]7c7ccccc7)cc6)CC5)C4)CC3)c(F)c2)C(=O)N1` (single isomer, unassigned) [Compound A164] the DC50 (ER [1]) was 0.001 to 0.01 µM, the Dmax (ER [1]) was 50 to 75% and the DC50 (ER [2]) was < 0.001 µM. The Dmax (ER [2]) was 25 to 50% and the IC50 (CRBN/DDB1) was < 0.05 µM.
For `O=C1CC[C@@H](N2Cc3c(ccc4c3OC[C@@H]3CN(C[C@H]5COC6(CCN(c7ccc([C@H]8c9ccc(O)cc9OC[C@H]8c8ccccc8)cc7)CC6)C5)CCN43)C2=O)C(=O)N1` [Compound A133, (R)-3-((S)-7-(((S)-8-(4-((3R,4S)-7-hydroxy-3-phenylchroman-4-yl)phenyl)-1-oxa-8-azaspiro[4.5]decan-3-yl)methyl)-1-oxo-1,3,5,5a,6,7,8,9-octahydro-2H-pyrazino[1′,2′:4,5][1,4]oxazino[2,3-e]isoindol-2-yl)piperidine-2,6-dione], the DC50 (ER [1]) was < 0.001 µM, the Dmax (ER [1]) was 25 to 50% and the DC50 (ER [2]) was 0.001 to 0.01 µM. For the same molecule, the Dmax (ER [2]) was 25 to 50% and the IC50 (CRBN/DDB1) was < 0.05 µM.
`O=C1CCC(N2C(=O)c3cc4c(cc3C2=O)CN(C(=O)CN2CCC3(CC2)CCN(c2ccc([C@H]5c6ccc(O)cc6OC[C@H]5c5ccccc5)cc2)CC3)C4)C(=O)N1` (single isomer, unassigned) [Compound A54, formate] was tested, and the DC50 (ER [1]) was 0.001 to 0.01 µM, the Dmax (ER [1]) was ≥ 75% and the DC50 (ER [2]) was 0.01 to 0.1 µM. The Dmax (ER [2]) was 25 to 50% and the IC50 (CRBN/DDB1) was 0.5 to 5 µM.
`COc1cc(N2CCC(CN3CCN(c4ccc(C(=O)NC5CCC(=O)NC5=O)nc4)CC3)CC2)c(F)cc1[C@H]1c2ccc(O)cc2OC[C@H]1c1ccccc1` (stereo partly drawn) [Compound A109, N-(2,6-dioxopiperidin-3-yl)-5-(4-((1-(2-fluoro-4-((3R,4R)-7-hydroxy-3-phenylchroman-4-yl)-5-methoxyphenyl)piperidin-4-yl)methyl)piperazin-1-yl)picolinamide] was tested, and the DC50 (ER [1]) was 0.001 to 0.01 µM, the “T47D Dmax %” value (ER [1]) was “C (“C”: 25%-50%)” and the DC50 (ER [2]) was 0.01 to 0.1 µM. The “MCF7 Dmax %” value (ER [2]) was “C (“C”: 25%-50%)” and the IC50 (CRBN/DDB1) was > 5 µM.
In the case of `COc1cc(N2CCC3(CC2)CC(CN2CCN4c5ccc6c(c5OC[C@@H]4C2)CN([C@@H]2CCC(=O)NC2=O)C6=O)C3)c(F)cc1[C@H]1c2ccc(O)cc2OC[C@H]1c1ccccc1` [Compound A126, (R)-3-((S)-7-((7-(2-fluoro-4-((3R,4R)-7-hydroxy-3-phenylchroman-4-yl)-5-methoxyphenyl)-7-azaspiro[3.5]nonan-2-yl)methyl)-1-oxo-1,3,5,5a,6,7,8,9-octahydro-2H-pyrazino[1′,2′:4,5][1,4]oxazino[2,3-e]isoindol-2-yl)piperidine-2,6-dione], the DC50 (ER [1]) is reported as < 0.001 µM, the Dmax (ER [1]) is reported as 50 to 75% and the DC50 (ER [2]) is reported as 0.001 to 0.01 µM. The Dmax (ER [2]) was 25 to 50% and the IC50 (CRBN/DDB1) was < 0.05 µM.
With `O=C1CC[C@@H](N2Cc3c(ccc4c3OC[C@@H]3CN(C[C@@H]5COC6(CCN(c7ccc([C@H]8c9ccc(O)cc9OC[C@H]8c8ccccc8)cc7F)CC6)C5)CCN43)C2=O)C(=O)N1` [Compound A155, (R)-3-((S)-7-(((R)-8-(2-fluoro-4-((3R,4S)-7-hydroxy-3-phenylchroman-4-yl)phenyl)-1-oxa-8-azaspiro[4.5]decan-3-yl)methyl)-1-oxo-1,3,5,5a,6,7,8,9-octahydro-2H-pyrazino[1′,2′:4,5][1,4]oxazino[2,3-e]isoindol-2-yl)piperidine-2,6-dione] the DC50 (ER [1]) was 0.001 to 0.01 µM, the Dmax (ER [1]) was 25 to 50% and the DC50 (ER [2]) was > 0.1 µM. The Dmax (ER [2]) was < 25% and the IC50 (CRBN/DDB1) was < 0.05 µM.
With `COc1cc(N2CCC(CN3CCN4c5cc6c(cc5OC[C@H]4C3)C(=O)N(C3CCC(=O)NC3=O)C6)CC2)ccc1[C@H]1c2ccc(O)cc2OC[C@H]1c1ccccc1` (stereo partly drawn) [Compound A74, 3-((R)-3-((1-(4-((3R,4S)-7-hydroxy-3-phenylchroman-4-yl)-3-methoxyphenyl)piperidin-4-yl)methyl)-8-oxo-1,2,3,4,4a,5,8,10-octahydro-9H-pyrazino[1′,2′:4,5][1,4]oxazino[2,3-f]isoindol-9-yl)piperidine-2,6-dione] the DC50 (ER [1]) was 0.001 to 0.01 µM, the Dmax (ER [1]) was 25 to 50% and the DC50 (ER [2]) was < 0.001 µM. The Dmax (ER [2]) was < 25% and the IC50 (CRBN/DDB1) was 0.5 to 5 µM.
In the case of `COc1cc(N2CCC(CN3CCN4c5ccc(C(=O)NC6CCC(=O)NC6=O)nc5OC[C@H]4C3)CC2)ccc1C1c2ccc(O)cc2OCC1c1ccccc1` (stereo in doubt) [Compound A134, (4aR)—N-(2,6-dioxopiperidin-3-yl)-3-((1-(4-((3R,4S)-7-hydroxy-3-phenylchroman-4-yl)-3-methoxyphenyl)piperidin-4-yl)methyl)-1,2,3,4,4a, 5-hexahydropyrazino[1,2-d]pyrido[2,3-b][1,4]oxazine-8-carboxamide], the DC50 (ER [1]) is reported as < 0.001 µM, the Dmax (ER [1]) is reported as ≥ 75% and the DC50 (ER [2]) is reported as < 0.001 µM. The Dmax (ER [2]) was ≥ 75% and the IC50 (CRBN/DDB1) was 0.5 to 5 µM.
For `O=C1CC[C@@H](Nc2ccc(C3CCN(CC4CCC5(CC4)CN(c4ccc([C@@H]6c7ccc(O)cc7OC[C@@H]6c6ccccc6)cc4)C5)CC3)cc2)C(=O)N1` (single isomer, unassigned) [Compound A141], the DC50 (ER [1]) was 0.001 to 0.01 µM, the Dmax (ER [1]) was 50 to 75% and the DC50 (ER [2]) was 0.001 to 0.01 µM. It also gave a Dmax (ER [2]) of 50 to 75% and an IC50 (CRBN/DDB1) of 0.05 to 0.5 µM.
For `O=C1CCC(NC(=O)c2ccc3c(n2)OC[C@H]2CN(CC4CCN(c5ccc([C@@H]6c7ccc(O)cc7OC[C@@H]6c6ccccc6)cc5F)CC4)CCN32)C(=O)N1` (single isomer, unassigned) [Compound A104], the DC50 (ER [1]) was 0.001 to 0.01 µM, the Dmax (ER [1]) was ≥ 75% and the DC50 (ER [2]) was 0.001 to 0.01 µM. The Dmax (ER [2]) was ≥ 75% and the IC50 (CRBN/DDB1) was 0.5 to 5 µM.
With `COc1cc(N2CCC(CN3CCN4c5cc6c(cc5OC[C@H]4C3)C(=O)N(C3CCC(=O)NC3=O)C6)CC2)ccc1[C@@H]1c2ccc(O)cc2OC[C@@H]1c1ccccc1` (single isomer, unassigned) [Compound A84, 3-((R)-3-((1-(4-((3S,4R)-7-hydroxy-3-phenylchroman-4-yl)-3-methoxyphenyl)piperidin-4-yl)methyl)-8-oxo-1,2,3,4,4a,5,8,10-octahydro-9H-pyrazino[1′,2′:4,5][1,4]oxazino[2,3-f]isoindol-9-yl)piperidine-2,6-dione] the DC50 (ER [1]) was < 0.001 µM, the DC50 (ER [2]) was < 0.001 µM and the IC50 (CRBN/DDB1) was 0.5 to 5 µM.
With `O=C1CCC(NC(=O)c2ccc(N3CCC(CN4CCN(c5ccc([C@H]6c7ccc(O)cc7OC[C@H]6c6ccccc6)cc5)CC4)CC3)cn2)C(=O)N1` (single isomer, unassigned) [Compound A128] the DC50 (ER [1]) was < 0.001 µM, the Dmax (ER [1]) was 50 to 75% and the DC50 (ER [2]) was < 0.001 µM. The “MCF7 Dmax %” value (ER [2]) was “B (“B”: >50% and <75%)” and the IC50 (CRBN/DDB1) was > 5 µM.
